EP0344708A2, “Composition for external application to skin” (LION CORPORATION, priority 1988, dated 1989)

Experiments:
incised wound = assay: Incised wound healing in rats (tension needed to peel skin at the wound, tensile strength tester); type: in vivo, Wistar male rats; conditions: relative to control (physiological saline) = 100; Concn. 0.5 % in saline, subcutaneously once a day for 7 days, 0.67 ml/kg/day; tension measured 8 days after operation; 8 rats per group
Description: Groups of Wistar male rats (SPF; each group comprising 8 animals) were anesthetized with Nembutal® pentobarbital sodium) injection and hair was removed from the back of each rat over a wide area. After disinfecting the area with alcohol, a sharp incised wound having a length of 4 cm was mesially formed with a scalpel and it was stitched up, with Mitchell needles, at three positions at regular intervals (the Mitchell needles were removed 4 days after the operation).
After forming incised wound, an effective component was dissolved in a saline solution and administered subcutaneously once a day for 7 days successively (dose: 0.67 m ℓ/kg/day). The animals were sacrificed 8 days after the operation, the skin of the wounded part was peeled off to remove subcutis followed by preparing three pieces of the skin perpendicular to the line of the incised wound, having a width of 1 cm, per rat and determining tention (g/cm) required for peeling off each piece of the skin at the incised wound portion utilizing a tensile strength tester. The relative value of the average of the measured tension with respect to that of the control was defined as an indication of the rate of healing of the wound. The results obtained are listed in Table III given below (the results are expressed in the value relative to that of the control which is defined as 100).

defective wound = assay: Circular defective wound in rats (weight of regenerated granulation); type: in vivo, Wistar male rats; conditions: relative to control (10% ethanol aqueous solution) = 100; Concn. 0.1 % in 10% ethanol aqueous solution, applied to wound twice a day, 1 ml per application, 5 days; granulation weight 6 days after wounding; 6 rats per group
Procedure: Groups of Wistar male rats (SPF; each group comprising 6 animals) were anesthetized and hair was removed from the back of each rat. Then a circular defective wound having a diameter of 12 mm was formed on the skin of the back from which hair had been removed.
After forming the defective wound, an effective component was dissolved in 10% ethanol aqueous solution and applied to the wounded portion twice a day in a dose of 1 mℓ per application for 5 days successively. 6 Days after the formation of the wound, the animals were sacrificed to cut off the formed granulation from the defective portion and the weight of the granulation was determined. The relative value of the average of the measured weight with respect to that of the control was defined as an indication of the rate of healing of the defective wound. The results obtained are listed in Table IV given below (the results are expressed in the value relative to that of the control which is defined as 100).

[1] = Stability of the compound in the used composition after the use test, HPLC; type: physicochemical; conditions: on the average, 131400 min

rate of Compound I-A ·2Ca remaining in the milky lotion ([1]; in the used milky lotion (0.05 %) after completion of the 3-month test) [%]	rate of the remaining Compound I-A ([1]; in the used toilet water (0.1 %) after completion of the 3-month test) [%]	rate of Compound I-A ·6Na remaining in the beauty essence ([1]; in the used beauty essence (0.1 %) after completion of the 3-month test) [%]	Compound	Rate of Relative Healing (incised wound)	Rate of Regenerated Granulation (defective wound)
			CC(C)(COP(=O)(O)OP(=O)(O)OC[C@H]1O[C@@H](n2cnc3c(N)ncnc32)[C@H](O)[C@@H]1OP(=O)(O)O)[C@@H](O)C(=O)NCCC(=O)NCCS [Coenzyme A ·3Na, reference compound]	117	119
98.8			CC(C)(COP(=O)(O)OP(=O)(O)OC[C@H]1O[C@@H](n2cnc3c(N)ncnc32)[C@H](O)[C@@H]1OP(=O)(O)O)[C@@H](O)C(=O)NCCC(=O)NCCSSCCNC(=O)CCNC(=O)[C@H](O)C(C)(C)COP(=O)(O)OP(=O)(O)OC[C@H]1O[C@@H](n2cnc3c(N)ncnc32)[C@H](O)[C@@H]1OP(=O)(O)O [Compound I-A ·2Ca]		
	97.8		CC(C)(COP(=O)(O)OP(=O)(O)OC[C@H]1O[C@@H](n2cnc3c(N)ncnc32)[C@H](O)[C@@H]1OP(=O)(O)O)[C@@H](O)C(=O)NCCC(=O)NCCSSCCNC(=O)CCNC(=O)[C@H](O)C(C)(C)COP(=O)(O)OP(=O)(O)OC[C@H]1O[C@@H](n2cnc3c(N)ncnc32)[C@H](O)[C@@H]1OP(=O)(O)O [Compound I-A]		
		98.5	CC(C)(COP(=O)(O)OP(=O)(O)OC[C@H]1O[C@@H](n2cnc3c(N)ncnc32)[C@H](O)[C@@H]1OP(=O)(O)O)[C@@H](O)C(=O)NCCC(=O)NCCSSCCNC(=O)CCNC(=O)[C@H](O)C(C)(C)COP(=O)(O)OP(=O)(O)OC[C@H]1O[C@@H](n2cnc3c(N)ncnc32)[C@H](O)[C@@H]1OP(=O)(O)O [Compound I-A ·6Na]	126	148
